Laboratory results published in patent publication US20140154717A1, “METHOD FOR DETECTING CANCER CELL USING FLUORESCENTLY LABELED L-GLUCOSE DERIVATIVE, AND CANCER CELL-IMAGING AGENT COMPRISING FLUORESCENTLY LABELED L-GLUCOSE DERIVATIVE” (priority 2011, published 2014).

Experiments:
[1] = system: mouse insulinoma cells (MIN6); assay: Confocal imaging of MIN6 tumor cell cluster using 2-NBDLG+2-TRLG mixture; type: cell-based
Method: A 0.1 mg 2-TRLG vial was transferred into a desiccator and the temperature thereof was returned to room temperature. […] Specifically, 6.5 mL of the above-described 2-NBDLG solution was prepared beforehand and stirred vigorously. Then, 40 μL of DMSO was added to a 2-TRLG vial container using a RAININ chip (Mettler Toledo) in which adhesion to the tip wall is ignorable, and stirred with the vial container by a mixer to cause dissolution thereof. 2-TRLG adhered to the wall was collected to the bottom by spinning down, the whole quantity thereof was removed by [sequence] using the same chip, and dissolved in the 2-NBDLG solution being stirred. 2-TRLG slightly remaining in the 2-TRLG vial container was recovered using 25 μL of DMSO in the same manner as described above, and further dissolved in the 2-NBDLG solution. By the above-described method, a mixed solution of 100 μM 2-NBDLG+20 μM 2-TRLG (final concentration) was prepared with good reproducibility.
A 100 μM 2-NBDLG+20 μM 2-TRLG mixture was administered for 3 minutes in a condition completely covering the whole tumor cell cluster. The state of the solution covering the whole cell cluster was confirmed each time without fail by fluorescence images in the green and red wavelength ranges during administration and acquisition of a transmitted light image. By stopping application of the fluorescent glucose mixture and switching simultaneously to the solution to a no fluorescent glucose-containing HEPES solution, the background fluorescence became ignorable level in 1 minute.
By the method according to Example 3, image acquisition before administration of the mixture was started just after starting an experiment, and from then on, the fluorescence images in the blue, green and red wavelength ranges and a transmitted light image were acquired every 2 minutes until completion of the experiment. Regarding laser used, DAPI used for nuclear staining was excited by using 405 nm diode laser (AOTF 20%) and 2-NBDLG and 2-TRLG were excited by using 488 nm argon laser (output: 50%, AOTF 28%). The scan speed was 400 Hz.
For fluorescence detection, three fluorescence detectors were used as described below. For detection of blue fluorescence by DAPI, a photomultiplier detector (PMT)1 was used in the wavelength detection range of 415 to 500 nm (detection sensitivity: 750 V), for detection of green fluorescence by 2-NBDLG, PMT2 was used in the wavelength detection range of 500 to 580 nm (detection sensitivity: 670 V), and for detection of red fluorescence, PMT3 was used in the wavelength detection range of 580 to 740 nm (detection sensitivity: 670 V). Here, most of the fluorescence of 2-TRLG is present in the wavelength longer than 580 nm and only a small fluorescent component is present in the wavelength less than 580 nm, thus, the fluorescence intensity in the range of 500 to 580 nm of PMT2 is barely influenced by 2-TRLG. Therefore, when the amount of detection of 2-TRLG in cells increases, its effect emerges mainly as an increase in the fluorescence intensity in the range of 580 to 740 nm of PMT3. On the other hand, although 2-NBDLG has the maximal fluorescence intensity around 540 to 550 nm, it has fluorescence in the range of 580 to 740 nm as well. Therefore, when the amount of detection of 2-NBDLG within the cell increases, the fluorescence intensity in the range of 580 to 740 nm detected by PMT3 also increases in addition to an increase in the fluorescence intensity in the range of 500 to 580 nm detected by PMT2. […]

[2] = system: mouse insulinoma cells (MIN6); assay: Confocal imaging of tumor cell clusters composed of mouse insulinoma cells (MIN6) using 2-NBDLG; type: cell-based; conditions: 100 μM, perfusion 3 minutes, just after washout; MIN6 cultured 11 days
Method: Culture medium containing MIN6 cells suspended at a proportion of 10×10^4 cells/mL was dispersed by pipetting, and dropped on a glass cover slip, then, allowed to stand still in a 5% CO2 incubator for 20 minutes to cause adhesion to the glass surface, and 3 mL of the culture medium was added, and the cells were cultured. The half quantity of the culture medium was exchanged every two days.
MIN6 cells (provided by Professor Miyazaki Junichi, Osaka University, and the passage number was six to nine times) were seeded on a 10 cm petri dish, allowed to stand still in a CO2 incubator, and cultured at 37° C. The half quantity of the culture medium was exchanged every two days.
High glucose-containing Dulbecco's modified Eagle's Medium (DMEM-HG) (SIGMA #D5648) (13.4 g), NaHCO3 (Wako, No. 191-01305) (3.4 g) and 2-Mercaptoethanol (Wako, No. 135-14352) (5 μL) were dissolved in 1 liter of ultra-pure water (Mili Q), and equilibrated with ambient air. Next, pH was adjusted to 7.3 to 7.35 using 1N HCl in a CO2 incubator at 37° C., and sterilized by suction filtration. Directly before use, Hyclone Fetal Bovine Serum (Cat# SH30070.03) was added so as to give a final concentration of 10% and penicillin-streptomycin (Gibco #15140) was added so as to give a final concentration of 0.5%.
MIN6 cells were prepared with culture medium so that the cell number was 10×10^4 cells/mL.
The whole quantity of one vial of 0.5 mg 2-NBDLG was dissolved in 14. 6 mL of a HEPES solution for image acquisition, for preparing a 2-NBDLG solution having a final concentration of 100 μM.
NaCl 131.8 mM, KCl 4.75 mM, KH2PO4 1.19 mM, MgCl2 1.2 mM, CaCl2 1 mM, NaHCO3 5.0 mM, D-Glucose 2.8 mM, HEPES 10 mM (adjusted to pH 7.35 with 1M NaOH). For inhibiting entrance and elimination of fluorescently labeled glucose via a gap junction/hemichannel, 0.1 mM Carbenoxolone (SIGMA #C4790) was added. The HEPES solution for image acquisition was used as a solution for preparing a 2-NBDLG solution and as a solution for preparing a 2-NBDLG/2-TRLG solution. […]

[3] = 100 μM 2-NBDLG+20 μM 2-TRLG mixture for 3 minutes

O=[N+]([O-])c1ccc(NC2C(O)OC(CO)[C@H](O)C2O)c2nonc12 (stereo partly drawn) [2-NBDLG, 2-[N-(7-Nitrobenz-2-oxa-1,3-diazol-4-yl)amino]-2-deoxy-L-glucose]
fluorescence at the central region of the cell cluster, 4 minutes after cessation of administration [1, 3]: weaken to a considerable extent
uptake into cells just outside of the central region of the cell cluster [1, 3]: taking up almost no
uptake at the central region of the cell cluster, 2 minutes after cessation of administration ([1]; 100 μM 2-NBDLG+20 μM 2-TRLG mixture for 3 minutes, green channel (2-NBDLG), red channel (2-TRLG)): Intense uptake
time of elimination from spherical cells on the outermost periphery of the cell cluster ([1]; 100 μM 2-NBDLG+20 μM 2-TRLG mixture, after cessation of administration): ≤ 2 min
time of elimination from cells at the central region of the tumor cell cluster ([1]; 100 μM 2-NBDLG+20 μM 2-TRLG mixture, between 2 and 4 minutes after cessation): ≤ 2 min
uptake into cell cluster (a), developed cluster with abnormal nuclei [2]: intense uptake
uptake into cell cluster (b), normal nucleus morphology [2]: only a slight uptake
uptake into cell cluster (c), two-dimensionally accumulated planar cluster [2]: almost no increase in the fluorescence intensity
